Measured values from ChEMBL document CHEMBL4823284, “Design, synthesis and biological evaluation of double fatty chain-modified glucagon-like peptide-1 conjugates” (Bioorg Med Chem, 2021).
Active and inactive are the calls of the source. The calls are words filed in the database; no cut-off is given here.

Tests used:
[1] = target: T1, Glucagon-like peptide 1 receptor (Homo sapiens, UniProt P43220); assay: Activation of GLP1R (unknown origin) CRE-bla expressed in CHO-K1 cells assessed as receptor potency incubated for 1 hrs by time resolved fluorescence resonance energy transfer immunoassay; format: functional, cell-based
Albumin = Albumin (Homo sapiens, UniProt P02768); assay: Binding affinity to albumin (unknown origin) after 8 hrs by HPLC analysis; format: ADME; parameters: concentration or dose not given beside the values; settings: isolated protein
[2] = Toxicity in mouse assessed as change in body weight at 30 nmol/kg, sc measured at 1.5 hrs; format: organism-based; settings: in vivo
Mus musculus [3] = assay: Hypoglycemic effect in intragastric starch treated mouse assessed as decrease in glucose AUC at 30 nmol/kg, sc measured up to 24 hrs; format: functional, organism-based; settings: time hrs <=24
Mus musculus [4] = assay: Hypoglycemic effect in intragastric starch treated mouse assessed as reduction in blood glucose level at 30 nmol/kg, sc measured at 1.5 hrs; format: functional, organism-based
Mus musculus [5] = assay: Hypoglycemic effect in intragastric starch treated mouse assessed as reduction in blood glucose level at 30 nmol/kg, sc measured up to 24 hrs; format: functional, organism-based; settings: time hrs <=24
[6] = target: T1, Glucagon-like peptide 1 receptor; assay: Binding affinity to GLP1R (unknown origin) assessed as binding rate constant by surface plasmon resonance analysis; settings: filed as activator
[7] = target: T1, Glucagon-like peptide 1 receptor; assay: Binding affinity to GLP1R (unknown origin) assessed as equilibrium constant by surface plasmon resonance analysis; settings: filed as activator
[8] = target: T1, Glucagon-like peptide 1 receptor; assay: Binding affinity to GLP1R (unknown origin) assessed as dissociation rate constant by surface plasmon resonance analysis

T1 sequence (P43220 whole entry): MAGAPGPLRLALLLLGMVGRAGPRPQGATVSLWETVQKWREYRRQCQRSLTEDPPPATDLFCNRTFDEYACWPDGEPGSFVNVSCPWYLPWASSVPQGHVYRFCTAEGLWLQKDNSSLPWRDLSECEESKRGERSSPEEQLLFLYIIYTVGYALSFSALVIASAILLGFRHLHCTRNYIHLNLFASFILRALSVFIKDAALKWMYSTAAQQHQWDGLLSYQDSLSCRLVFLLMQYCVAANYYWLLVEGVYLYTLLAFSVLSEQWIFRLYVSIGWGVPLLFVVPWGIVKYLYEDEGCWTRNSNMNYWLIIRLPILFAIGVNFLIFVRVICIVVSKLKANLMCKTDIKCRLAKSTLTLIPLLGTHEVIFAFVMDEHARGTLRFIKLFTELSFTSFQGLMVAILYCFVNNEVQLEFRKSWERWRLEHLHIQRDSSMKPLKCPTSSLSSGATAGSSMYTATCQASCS
Albumin, sequence (P02768 whole entry): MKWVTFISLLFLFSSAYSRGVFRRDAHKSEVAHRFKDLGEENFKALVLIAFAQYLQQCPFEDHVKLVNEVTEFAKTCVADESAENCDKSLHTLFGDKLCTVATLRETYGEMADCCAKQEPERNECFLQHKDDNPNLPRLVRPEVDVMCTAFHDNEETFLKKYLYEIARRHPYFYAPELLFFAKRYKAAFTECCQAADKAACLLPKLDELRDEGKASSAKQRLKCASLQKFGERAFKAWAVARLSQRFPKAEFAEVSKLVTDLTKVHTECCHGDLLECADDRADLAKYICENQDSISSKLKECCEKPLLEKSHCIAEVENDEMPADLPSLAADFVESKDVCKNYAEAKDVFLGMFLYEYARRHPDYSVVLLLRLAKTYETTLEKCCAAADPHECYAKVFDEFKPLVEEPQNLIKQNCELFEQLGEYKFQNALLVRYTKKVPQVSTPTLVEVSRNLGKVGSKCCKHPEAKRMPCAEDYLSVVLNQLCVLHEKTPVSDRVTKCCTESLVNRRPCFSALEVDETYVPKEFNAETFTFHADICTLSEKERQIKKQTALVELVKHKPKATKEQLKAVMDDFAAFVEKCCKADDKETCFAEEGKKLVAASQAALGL

Compound: CCCCCCCCCCCCCCCC(=O)N[C@@H](CCC(=O)NCCCC[C@H](NC(=O)CC[C@H](NC(=O)CCCCCCCCCCCCCCC)C(=O)O)C(=O)NCCOCCOCC(=O)O)C(=O)O
- EC50 [1]: 0.0723 nM

Compound: SEMAGLUTIDE [listing 1 of 2 here]
- Activity (Albumin): > 99%
- Activity [2]: Toxic

Compound: CCCCCCCCCCCCCC(=O)N[C@@H](CCC(=O)NCCCC[C@H](NC(=O)CC[C@H](NC(=O)CCCCCCCCCCCCC)C(=O)O)C(=O)NCCOCCOCC(=O)NCCOCCOCC(=O)NCCOCCOCC(=O)O)C(=O)O
- EC50 [1]: 0.0016 nM
- Activity (Mus musculus [3]): Active
- Activity [2]: Toxic
- Activity (Mus musculus [4]): Active
- Activity (Mus musculus [5]): Active

Compound: CCCCCCCCCC(=O)N[C@@H](CCC(=O)NCCCC[C@H](NC(=O)CC[C@H](NC(=O)CCCCCCCCC)C(=O)O)C(=O)NCCOCCOCC(=O)NCCOCCOCC(=O)NCCOCCOCC(=O)O)C(=O)O
- EC50 [1]: 0.132 nM
- Activity (Albumin): 86%

Compound: CCCCCCCCCC(=O)N[C@@H](CCC(=O)NCCCC[C@H](NC(=O)CC[C@H](NC(=O)CCCCCCCCC)C(=O)O)C(=O)NCCOCCOCC(=O)O)C(=O)O
- EC50 [1]: 0.143 nM
- Activity (Albumin): 94.5%

Compound: CCCCCCCCCCCCCC(=O)N[C@@H](CCC(=O)NCCCC[C@H](NC(=O)CC[C@H](NC(=O)CCCCCCCCCCCCC)C(=O)O)C(=O)NCCOCCOCC(=O)O)C(=O)O
- EC50 [1]: 0.0096 nM
- Activity [2]: Toxic
- Activity (Mus musculus [4]): Active
- Activity (Mus musculus [5]): Active

Compound: SEMAGLUTIDE [listing 2 of 2 here]
- Ka [6]: 9.24 10^4/Ms
- Activity (Mus musculus [3]): Active
- Ke [7]: 1.33 10^-6M
- Activity (Mus musculus [4]): Active
- Activity (Mus musculus [5]): Active

Compound: CCCCCCCCCCCCCCCC(=O)N[C@@H](CCC(=O)NCCCC[C@H](NC(=O)CC[C@H](NC(=O)CCCCCCCCCCCCCCC)C(=O)O)C(=O)NCCOCCOCC(=O)NCCOCCOCC(=O)NCCOCCOCC(=O)O)C(=O)O
- EC50 [1]: 0.0274 nM

Compound: CCCCCCCCCCCC(=O)N[C@@H](CCC(=O)NCCCC[C@H](NC(=O)CC[C@H](NC(=O)CCCCCCCCCCC)C(=O)O)C(=O)NCCOCCOCC(=O)O)C(=O)O
- Ka [6]: 1.11 10^3/M/s
- EC50 [1]: 0.0142 nM
- Activity (Albumin): > 99%
- Activity (Mus musculus [3]): Active
- Activity [2]: Toxic
- Ke [7]: 5.85 10^-6M
- Activity (Mus musculus [4]): Active
- Dissociation rate constant (koff) [8]: 6.5 10^-3/s
- Activity (Mus musculus [5]): Active

Compound: CCCCCCCCCCCCCCCC(=O)N[C@@H](CCC(=O)NCCCC[C@H](NC(=O)CC[C@H](NC(=O)CCCCCCCCCCCCCCC)C(=O)O)C(=O)NCCOCCOCC(=O)NCCOCCOCC(=O)O)C(=O)O
- EC50 [1]: 0.0788 nM

Compound: CCCCCCCCCCCC(=O)N[C@@H](CCC(=O)NCCCC[C@H](NC(=O)CC[C@H](NC(=O)CCCCCCCCCCC)C(=O)O)C(=O)NCCOCCOCC(=O)NCCOCCOCC(=O)NCCOCCOCC(=O)O)C(=O)O
- Ka [6]: 3.26 10^3/M/s
- EC50 [1]: 0.0051 nM
- Activity (Albumin): 91.6%
- Activity (Mus musculus [3]): Active
- Activity [2]: Toxic
- Ke [7]: 7.25 10^-6M
- Activity (Mus musculus [4]): Active
- Dissociation rate constant (koff) [8]: 2.37 10^-2/s
- Activity (Mus musculus [5]): Active

Compound: CCCCCCCCCCCC(=O)N[C@@H](CCC(=O)NCCCC[C@H](NC(=O)CC[C@H](NC(=O)CCCCCCCCCCC)C(=O)O)C(=O)NCCOCCOCC(=O)NCCOCCOCC(=O)O)C(=O)O
- Ka [6]: 5.97 10^2/Ms
- EC50 [1]: 0.0101 nM
- Activity (Albumin): 94.3%
- Activity (Mus musculus [3]): Active
- Activity [2]: Toxic
- Ke [7]: 1.44 10^-5M
- Activity (Mus musculus [4]): Active
- Dissociation rate constant (koff) [8]: 8.57 10^-3/s
- Activity (Mus musculus [5]): Active

Compound: CCCCCCCCCCCCCC(=O)N[C@@H](CCC(=O)NCCCC[C@H](NC(=O)CC[C@H](NC(=O)CCCCCCCCCCCCC)C(=O)O)C(=O)NCCOCCOCC(=O)NCCOCCOCC(=O)O)C(=O)O
- EC50 [1]: 0.0066 nM
- Activity (Mus musculus [3]): Active
- Activity [2]: Toxic

Compound: CCCCCCCCCC(=O)N[C@@H](CCC(=O)NCCCC[C@H](NC(=O)CC[C@H](NC(=O)CCCCCCCCC)C(=O)O)C(=O)NCCOCCOCC(=O)NCCOCCOCC(=O)O)C(=O)O
- EC50 [1]: 0.2 nM
- Activity (Albumin): 90.2%
